Here are results for 26 molecules from ChEMBL document CHEMBL4813920, “Metronidazole-conjugates: A comprehensive review of recent developments towards synthesis and medicinal perspective” (Eur J Med Chem, 2021).

Data set [1] deals with Giardia intestinalis. The data set can be described thus: Antigiardial activity against Giardia intestinalis WB ATCC 30957 by trypan blue staining based assay. The class given is functional, organism-based. The following applies: Giardia duodenalis.
In data set [2] the test system is Entamoeba histolytica. The data set can be described thus: Antiamoebic activity against Entamoeba histolytica HK9 ATCC 30015 by trypan blue staining based assay. The class given is functional, organism-based.
Data set [3] relates to Clostridium sporogenes. Nature of the data set: Antimicrobial activity against Clostridium sporogenes ATCC 19404 incubated for 24 hrs by broth microdilution method. The class given is functional. A general note: In broth dilution the organism is exposed to a series of concentrations in liquid medium.
The target of data set [4] is T1, Pancreatic alpha-amylase (Sus scrofa, UniProt P00690).
T1 sequence (P00690 whole entry): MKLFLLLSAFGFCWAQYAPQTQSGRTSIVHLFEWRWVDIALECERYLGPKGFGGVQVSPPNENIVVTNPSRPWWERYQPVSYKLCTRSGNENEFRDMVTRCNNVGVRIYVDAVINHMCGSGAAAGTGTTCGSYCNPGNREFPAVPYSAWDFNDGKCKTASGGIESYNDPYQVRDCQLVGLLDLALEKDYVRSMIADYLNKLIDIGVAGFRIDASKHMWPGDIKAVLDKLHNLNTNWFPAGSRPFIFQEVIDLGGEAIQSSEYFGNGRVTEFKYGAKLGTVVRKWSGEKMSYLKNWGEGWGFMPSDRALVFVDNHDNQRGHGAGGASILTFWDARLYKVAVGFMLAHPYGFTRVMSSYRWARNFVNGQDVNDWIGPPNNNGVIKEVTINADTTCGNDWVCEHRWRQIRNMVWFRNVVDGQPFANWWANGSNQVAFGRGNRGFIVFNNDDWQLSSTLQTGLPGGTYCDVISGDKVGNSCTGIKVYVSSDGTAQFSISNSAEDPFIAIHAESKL
The data set can be described thus: Inhibition of porcine pancreatic alpha-amylase using 1% starch as substrate preincubated for 10 mins followed by substrate addition and measured after 10 mins by absorbance method.

In data set [5] the test system is Leishmania braziliensis. Nature of the data set: Antileishmanial activity against promastigote form of Leishmania braziliensis MHOM/BR/75/M2903 measured for 7 days by cell counting method. The class given is functional. The conditions noted are these: MHOM/BR/75/M2903, 168 h, time 7 day.
Data set [6] relates to Leishmania mexicana. Nature of the data set: Antileishmanial activity against promastigote form of Leishmania mexicana MHOM/BZ/82/Bel21 measured for 7 days by cell counting method. It counts as functional. The conditions noted are these: MHOM/BZ/82/Bel21, 168 h, time 7 day.
Data set [7] concerns the target Carbonic anhydrase 9 (Homo sapiens, UniProt Q16790). The data set can be described thus: Inhibition of recombinant human carbonic anhydrase 9 preincubated with enzyme for 15 mins by phenol red dye based stopped flow CO2 hydration assay.
For data set [8], the target named is Carbonic anhydrase 2 (Homo sapiens, UniProt P00918). Nature of the data set: Inhibition of recombinant human carbonic anhydrase 2 preincubated with enzyme for 15 mins by phenol red dye based stopped flow CO2 hydration assay.
In data set [9] the test system is Escherichia coli. Nature of the data set: Antibacterial activity against Escherichia coli ATCC 8739 incubated for 24 hrs by broth microdilution method. It counts as functional.
Data set [10] has as its system Staphylococcus aureus. The data set can be described thus: Antibacterial activity against Staphylococcus aureus ATCC 6538P incubated for 24 hrs by broth microdilution method. It counts as functional.
The test system of data set [11] is Staphylococcus aureus. Nature of the data set: Antibacterial activity against Staphylococcus aureus ATCC 6538 incubated for 24 hrs by two fold serial dilution method. It counts as functional.
For data set [12], the system named is Pseudomonas aeruginosa. The data set can be described thus: Antibacterial activity against Pseudomonas aeruginosa ATCC 13525 incubated for 24 hrs by two fold serial dilution method. It counts as functional.
For data set [13], the system named is Escherichia coli. Nature of the data set: Antibacterial activity against Escherichia coli ATCC 35218 incubated for 24 hrs by two fold serial dilution method. It counts as functional.
The subject of data set [14] is Bacillus spizizenii. Nature of the data set: Antibacterial activity against Bacillus subtilis ATCC 6633 incubated for 24 hrs by two fold serial dilution method. The class given is functional.
Data set [15] has as its system Pseudomonas aeruginosa. Nature of the data set: Antibacterial activity against Pseudomonas aeruginosa ATCC 13525 by MH media dilution method. It counts as functional.
Data set [16] deals with Bacillus spizizenii. Nature of the data set: Antibacterial activity against Bacillus subtilis ATCC 6633 by MH media dilution method. It counts as functional.
For data set [17], the system named is Staphylococcus aureus. The data set can be described thus: Antibacterial activity against Staphylococcus aureus ATCC 6538 by MH media dilution method. It counts as functional.
Data set [18] has as its system Escherichia coli. Nature of the data set: Antibacterial activity against Escherichia coli ATCC 35218 by MH media dilution method. The class given is functional.
Data set [19] relates to MDA-MB-231. Nature of the data set: Antiproliferative activity against human MDA-MB-231 cells after 24 hrs by MTT assay. The conditions noted are these: MDA-MB-231, 24 h. The class given is functional, cell-based. A general note: Tetrazolium assays rely on reduction of a dye to a coloured formazan, in cell work by metabolically active cells.
Data set [20] is described as follows: Selectivity index, ratio of CC50 for African green monkey Vero cells to IC50 for antigiardial activity against Trichomonas vaginalis GT3. It counts as toxicity. The following applies: read-out: Ratio CC50/IC50.
Data set [21] can be described thus: Selectivity index, ratio of CC50 for African green monkey Vero cells to IC50 for antigiardial activity against Giardia intestinalis MSS:0696:1. It counts as toxicity. The following applies: read-out: Ratio CC50/IC50.
Data set [22] deals with Trichomonas vaginalis. The data set can be described thus: Anti-trichomonas activity against Trichomonas vaginalis GT3 incubated for 48 hrs. It counts as functional, organism-based. The conditions noted are these: GT3, 48 h.
Data set [23] relates to Giardia intestinalis. The data set can be described thus: Antigiardial activity against Giardia intestinalis MSS:0696:1 incubated for 48 hrs. It counts as functional, organism-based. The following applies: Giardia duodenalis, MSS:0696:1, 48 h.
For data set [24], the system named is A549. Nature of the data set: Antiproliferative activity against human A549 cells incubated for 24 to 48 hrs by CCK8 assay. It counts as functional, cell-based.
The test system of data set [25] is HeLa. Nature of the data set: Antiproliferative activity against human Hela cells incubated for 24 to 48 hrs by CCK8 assay. It counts as functional, cell-based.
Data set [26] concerns U-251. Nature of the data set: Antiproliferative activity against human U-251 cells incubated for 24 to 48 hrs by CCK8 assay. It counts as functional, cell-based.
For data set [27], the system named is HepG2. The data set can be described thus: Antiproliferative activity against human HepG2 cells incubated for 24 to 48 hrs by CCK8 assay. The class given is functional, cell-based.

≈ marks a conversion by molar mass, not a printed value.

As for `COc1ccc(-n2c(SCCn3c([N+](=O)[O-])cnc3C)nnc2-c2cccnc2)cc1`, the IC50 – broadly, the midpoint of a concentration-inhibition curve – in data set [1] turned out to be 1.78 µM; in [2], 0.48 µM. In addition, the MIC (as a rule, the lowest concentration that inhibits growth of the organism) in data set [3] was determined as 17.8 µM (≈ 7.79 µg/mL).
For the molecule `Cc1cccc(COCCn2c([N+](=O)[O-])cnc2C)c1`, in [4], the 50% inhibitory concentration (IC50) worked out at 0.38 µM.
In data set [4], `Cc1ncc([N+](=O)[O-])n1CCOCc1ccc2ccccc2c1` showed a half-inhibitory concentration (IC50) of 1.66 µM.
As for `Cc1ncc([N+](=O)[O-])n1CCOCc1ccc(F)cc1`, the IC50 in data set [4] was less than 2.98 µM.
Molecule `Cc1ncc([N+](=O)[O-])n1CCOCc1ccc[nH]1` displayed an IC50 in data set [4] of less than 2.98 µM.
`Cc1ncc([N+](=O)[O-])n1CCOCc1ccncc1`: in data set [4], the 50% inhibitory concentration (IC50) is less than 2.98 µM.
Turning to `Cc1ncc([N+](=O)[O-])n1CCOCc1cccc(Cl)c1`, the IC50 in data set [4] was less than 2.98 µM.
Turning to `Cc1ncc([N+](=O)[O-])n1CCSCO`, the median lethal concentration (LC50) (in general, the concentration lethal to half of the exposed cells or organisms) in data set [5] was 950 µM; in data set [6] it was 2250 µM.
For the molecule `Cc1ncc([N+](=O)[O-])n1CCOCc1ccc(C#N)cc1`, the IC50 in data set [4] is less than 2.98 µM.
In [4], `COc1cccc(COCCn2c([N+](=O)[O-])cnc2C)c1` registered a concentration for half-maximal inhibition (IC50) of less than 2.98 µM.
`Cc1ncc([N+](=O)[O-])n1CCOCc1ccccc1Cl` registered a half-maximal inhibitory concentration (IC50) in [4] of less than 2.98 µM.
As to `Cc1ncc([N+](=O)[O-])n1CCOc1ccc(/C=N\c2ccc(S(=O)(=O)NC(=N)N)cc2)cc1`, the results for the IC50 in [7] and in data set [8] were 0.135 µM and 0.07 µM, respectively.
Molecule `Cc1ncc([N+](=O)[O-])n1CCOCc1ccc(F)cc1Br` returned an IC50 in [4] of less than 2.98 µM.
Regarding `Cc1ncc([N+](=O)[O-])n1CCOCc1ccccc1Br`, in data set [4], the IC50 is less than 2.98 µM.
Still for that read-out and setting: as for `Cc1ncc([N+](=O)[O-])n1CCOCc1ccc(Br)cc1`, the figure is less than 2.98 µM.
`Cc1cc(COCCn2c([N+](=O)[O-])cnc2C)ccc1[N+](=O)[O-]` yielded a half-inhibitory concentration (IC50) in [4] of less than 2.98 µM.
`Cc1ncc([N+](=O)[O-])n1CCOc1ccc(/C=N\c2ccc(S(=O)(=O)Nc3nccs3)cc2)cc1`: the results for the half-inhibitory concentration (IC50) in data set [7] and in data set [8] were 0.093 µM and 0.016 µM, respectively.
`Cc1cc(NNS(=O)(=O)c2ccc(/N=C\c3ccc(OCCn4c([N+](=O)[O-])cnc4C)cc3)cc2)no1`: the IC50 was found to be 0.112 µM in data set [7] and 0.033 µM in [8].
For `Cc1ncc([N+](=O)[O-])n1CCn1c(-c2ccncc2)nn(-c2ccccc2)c1=S`, the results for the IC50 in data set [1] and in data set [2] were 0.76 µM and 3.27 µM, respectively. In addition, the minimal inhibitory concentration (MIC) in data set [3] is 29.9 µM (≈ 12.2 µg/mL).
Consider `CC1(C)S[C@@H]2[C@H](NC(=O)[C@H](N)c3ccccc3)C(=O)N2[C@H]1C(=O)O` [AMPICILLIN], for which the MIC in data set [9] was 2.3 µM (≈ 0.804 µg/mL); in data set [10] it was 0.036 µM (≈ 0.0126 µg/mL).
Turning to `NC[C@H]1O[C@H](O[C@H]2[C@H](O)[C@@H](O[C@H]3O[C@H](CO)[C@@H](O)[C@H](N)[C@H]3O)[C@H](N)C[C@@H]2N)[C@H](N)[C@@H](O)[C@@H]1O` [BEKANAMYCIN], the MIC in data set [11] was 1.56 µg/mL (≈ 3.23 µM); in [12], 3.13 µg/mL (≈ 6.47 µM); in data set [13], 1.56 µg/mL (≈ 3.23 µM); in data set [14], 0.78 µg/mL (≈ 1.61 µM).
`O=C(N[C@H](CO)[C@H](O)c1ccc([N+](=O)[O-])cc1)C(Cl)Cl` [CHLORAMPHENICOL]: the minimum inhibitory concentration (MIC) in data set [15] was 0.98 µg/mL (≈ 3.03 µM); in [16], 3.91 µg/mL (≈ 12.1 µM); in data set [17], 3.91 µg/mL (≈ 12.1 µM); in [18] it was 3.91 µg/mL (≈ 12.1 µM).
Consider `CC1(C)S[C@@H]2[C@H](NC(=O)Cc3ccccc3)C(=O)N2[C@H]1C(=O)O` [PENICILLIN G], for which the MIC in data set [15] turned out to be 7.82 µg/mL (≈ 23.4 µM); in [16], 0.98 µg/mL (≈ 2.93 µM); in [11], 6.25 µg/mL (≈ 18.7 µM); in data set [12], 6.25 µg/mL (≈ 18.7 µM); in data set [13], 3.13 µg/mL (≈ 9.36 µM); in data set [17], 1.96 µg/mL (≈ 5.86 µM). Further, the figures for the MIC in data set [18] and in [14] were 7.82 µg/mL (≈ 23.4 µM) and 1.56 µg/mL (≈ 4.67 µM), respectively.
In the case of `CC1=CC(=O)c2c(O)cccc2C1=O` [PLUMBAGIN], in [19], half-maximal inhibition (IC50) required 4.4 µM.
`Cc1ncc([N+](=O)[O-])n1CC(C)O` (centres undefined) [SECNIDAZOLE]: the selectivity ratio in [20] was greater than 7; in data set [21], greater than 24. The IC50 in data set [22] stood at 13.5 µM; in data set [23], 4.41 µM.
As for `C[C@@H]1CCN(C(=O)CC#N)C[C@@H]1N(C)c1ncnc2[nH]ccc12` [TOFACITINIB], the concentration for half-maximal inhibition (IC50) came to 0.1 µM in data set [24], 0.04 µM in data set [25], 0.33 µM in data set [26] and 0.11 µM in data set [27].
